Results reported in ChEMBL document CHEMBL5724914, “Linking interpersonal differences in gut microbiota composition and drug biotransformation activity” (2024).

Assays:
[1] = (§1) The drug is tested on Z-026 corresponding to metagenome with ENA study accession number: PRJEB37062 and ENA sample accession number: ERS12561825 for biotransformation under anaerobic condition. The drug concentrations were measured over 9 timepoints collected between 0 and 24 hours of incubation by liquid-chromatography-coupled mass spectrometry (LC–MS); details: 2 µM
[2] = (§2) The drug is tested on Z-017 corresponding to mouse gut metagenome with ENA study accession number: PRJEB37062 and ENA sample accession number: ERS12561816 for biotransformation under anaerobic condition. The drug concentrations were measured over 9 timepoints collected between 0 and 24 hours of incubation by liquid-chromatography-coupled mass spectrometry (LC–MS); details: 2 µM
[3] = as §1, with “Z-004” for “Z-026”, “ERS12561804” for “ERS12561825”; details: 2 µM
[4] = as §2, with “WLS-310” for “Z-017”, “human” for “mouse”, “ERS12561785” for “ERS12561816”; details: 2 µM
[5] = as §2, with “WLS-240” for “Z-017”, “human” for “mouse”, “ERS12561773” for “ERS12561816”; details: 2 µM
[6] = as §2, with “WLS-220” for “Z-017”, “human” for “mouse”, “ERS12561769” for “ERS12561816”; details: 2 µM
[7] = as §2, with “WLS-073” for “Z-017”, “human” for “mouse”, “ERS12561749” for “ERS12561816”; details: 2 µM
[8] = as §2, with “WLS-069” for “Z-017”, “human” for “mouse”, “ERS12561748” for “ERS12561816”; details: 2 µM
[9] = as §2, with “WLS-052” for “Z-017”, “human” for “mouse”, “ERS12561747” for “ERS12561816”; details: 2 µM
[10] = as §2, with “WLS-039” for “Z-017”, “human” for “mouse”, “ERS12561746” for “ERS12561816”; details: 2 µM
[11] = as §2, with “WLS-010” for “Z-017”, “human” for “mouse”, “ERS12561743” for “ERS12561816”; details: 2 µM
[12] = human gut metagenome, 24 h, 2 µM
[13] = human gut metagenome, 24 h, 2 µM; remark: listed apart in the source
[14] = human gut metagenome, 24 h, 2 µM; remark: listed apart in the source
[15] = human gut metagenome, 24 h, 2 µM; remark: listed apart in the source
[16] = human gut metagenome, 24 h, 2 µM; remark: listed apart in the source
[17] = human gut metagenome, 24 h, 2 µM; remark: listed apart in the source
[18] = human gut metagenome, 24 h, 2 µM; remark: listed apart in the source
[19] = human gut metagenome, 24 h, 2 µM; remark: listed apart in the source
[20] = human gut metagenome, 24 h, 2 µM; remark: listed apart in the source
Note: call rule not given here.

| SMILES | Bacterial Biotransformation [1] | Bacterial Biotransformation [2] | Bacterial Biotransformation [3] | Bacterial Biotransformation [4] | Bacterial Biotransformation [5] | Bacterial Biotransformation [6] | Bacterial Biotransformation [7] | Bacterial Biotransformation [8] | Bacterial Biotransformation [9] | Bacterial Biotransformation [10] | Bacterial Biotransformation [11] | Bacterial Biotransformation [12] | Bacterial Biotransformation [13] | Bacterial Biotransformation [14] | Bacterial Biotransformation [15] | Bacterial Biotransformation [16] | Bacterial Biotransformation [17] | Bacterial Biotransformation [18] | Bacterial Biotransformation [19] | Bacterial Biotransformation [20] |
| --- | --- | --- | --- | --- | --- | --- | --- | --- | --- | --- | --- | --- | --- | --- | --- | --- | --- | --- | --- | --- |
| CC(C)NCC(O)c1ccc(NS(C)(=O)=O)cc1 (stereo not given) [SOTALOL] | Compound NOT metabolized | Compound NOT metabolized | Compound NOT metabolized | Compound NOT metabolized | Compound NOT metabolized | Compound NOT metabolized | Compound NOT metabolized | Compound NOT metabolized | Compound NOT metabolized | Compound NOT metabolized | Compound NOT metabolized | Compound NOT metabolized | Compound NOT metabolized | Compound NOT metabolized | Compound NOT metabolized | Compound NOT metabolized | Compound NOT metabolized | Compound NOT metabolized | Compound NOT metabolized | Compound NOT metabolized |
| Cc1ccccc1N1C(=O)c2cc(S(N)(=O)=O)c(Cl)cc2NC1C (stereo not given) [METOLAZONE] | Compound metabolized | Compound NOT metabolized | Compound NOT metabolized | Compound NOT metabolized | Compound metabolized | Compound metabolized | Compound NOT metabolized | Compound NOT metabolized | Compound metabolized | Compound NOT metabolized | Compound NOT metabolized | Compound metabolized | Compound metabolized | Compound NOT metabolized | Compound metabolized | Compound metabolized | Compound metabolized | Compound metabolized | Compound NOT metabolized | Compound metabolized |
| COc1c(C)c2c(c(O)c1C/C=C(\C)CCC(=O)OCCN1CCOCC1)C(=O)OC2 [MYCOPHENOLATE MOFETIL] | Compound metabolized | Compound metabolized | Compound metabolized | Compound metabolized | Compound metabolized | Compound metabolized | Compound metabolized | Compound metabolized | Compound metabolized | Compound metabolized | Compound metabolized | Compound metabolized | Compound metabolized | Compound metabolized | Compound metabolized | Compound metabolized | Compound metabolized | Compound metabolized | Compound metabolized | Compound metabolized |
| CC(C)c1nc(CN(C)C(=O)N[C@H](C(=O)N[C@@H](Cc2ccccc2)C[C@H](O)[C@H](Cc2ccccc2)NC(=O)OCc2cncs2)C(C)C)cs1 [RITONAVIR] | Compound metabolized | Compound NOT metabolized | Compound NOT metabolized | Compound metabolized | Compound metabolized | Compound metabolized | Compound metabolized | Compound metabolized | Compound metabolized | Compound metabolized | Compound metabolized | Compound NOT metabolized | Compound NOT metabolized | Compound metabolized | Compound metabolized | Compound metabolized | Compound metabolized | Compound metabolized | Compound metabolized | Compound metabolized |
| CCc1nn(CCCN2CCN(c3cccc(Cl)c3)CC2)c(=O)n1CCOc1ccccc1 [NEFAZODONE] | Compound NOT metabolized | Compound NOT metabolized | Compound NOT metabolized | Compound metabolized | Compound metabolized | Compound metabolized | Compound NOT metabolized | Compound metabolized | Compound metabolized | Compound metabolized | Compound metabolized | Compound NOT metabolized | Compound NOT metabolized | Compound metabolized | Compound metabolized | Compound NOT metabolized | Compound metabolized | Compound metabolized | Compound metabolized | Compound metabolized |
| CC(C)NCC(O)COc1ccc(CCOCC2CC2)cc1 (stereo not given) [BETAXOLOL] | Compound NOT metabolized | Compound NOT metabolized | Compound metabolized | Compound metabolized | Compound metabolized | Compound NOT metabolized | Compound NOT metabolized | Compound NOT metabolized | Compound NOT metabolized | Compound NOT metabolized | Compound NOT metabolized | Compound NOT metabolized | Compound NOT metabolized | Compound metabolized | Compound NOT metabolized | Compound NOT metabolized | Compound NOT metabolized | Compound metabolized | Compound NOT metabolized | Compound metabolized |
| N#Cc1ccc(C(c2ccc(C#N)cc2)n2cncn2)cc1 [LETROZOLE] | Compound metabolized | Compound NOT metabolized | Compound NOT metabolized | Compound NOT metabolized | Compound NOT metabolized | Compound NOT metabolized | Compound NOT metabolized | Compound NOT metabolized | Compound NOT metabolized | Compound NOT metabolized | Compound NOT metabolized | Compound NOT metabolized | Compound NOT metabolized | Compound NOT metabolized | Compound NOT metabolized | Compound NOT metabolized | Compound NOT metabolized | Compound NOT metabolized | Compound NOT metabolized | Compound NOT metabolized |
| Nc1c2c(nc3ccccc13)CCCC2 [TACRINE] | Compound NOT metabolized | Compound NOT metabolized | Compound NOT metabolized | Compound metabolized | Compound metabolized | Compound NOT metabolized | Compound NOT metabolized | Compound metabolized | Compound NOT metabolized | Compound NOT metabolized | Compound NOT metabolized | Compound NOT metabolized | Compound NOT metabolized | Compound metabolized | Compound metabolized | Compound NOT metabolized | Compound NOT metabolized | Compound metabolized | Compound metabolized | Compound metabolized |
